27 compounds from patent publication US10023570B2 (Array BioPharma, Inc., priority 2015, dated 2018) can be followed below.

The target in this assay is human KDR protein in HEK-293 cells (Homo sapiens (Human), UniProt P35968). As to the kind of experiment: KDR Cell Assay (phospho-KDR in HEK-293 cells expressing inducible KDR). In kind it is cell-based. To be noted: pKDR Cell HEK 10% FBS IC50, HEK-293 cells expressing inducible KDR, VEGF stimulated, 10% FBS. The essentials:
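HEK-293 cells with inducible human KDR were treated with compound for 1 h in DMEM (0.25% DMSO final), then lysed. Phospho-KDR was quantified by Meso Scale immunoassay, expressed as percent of control, and IC50 taken where a 4-parameter logistic fit crossed 50 POC.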

human KDR protein in HEK-293 cells, sequence (P35968 20-1356): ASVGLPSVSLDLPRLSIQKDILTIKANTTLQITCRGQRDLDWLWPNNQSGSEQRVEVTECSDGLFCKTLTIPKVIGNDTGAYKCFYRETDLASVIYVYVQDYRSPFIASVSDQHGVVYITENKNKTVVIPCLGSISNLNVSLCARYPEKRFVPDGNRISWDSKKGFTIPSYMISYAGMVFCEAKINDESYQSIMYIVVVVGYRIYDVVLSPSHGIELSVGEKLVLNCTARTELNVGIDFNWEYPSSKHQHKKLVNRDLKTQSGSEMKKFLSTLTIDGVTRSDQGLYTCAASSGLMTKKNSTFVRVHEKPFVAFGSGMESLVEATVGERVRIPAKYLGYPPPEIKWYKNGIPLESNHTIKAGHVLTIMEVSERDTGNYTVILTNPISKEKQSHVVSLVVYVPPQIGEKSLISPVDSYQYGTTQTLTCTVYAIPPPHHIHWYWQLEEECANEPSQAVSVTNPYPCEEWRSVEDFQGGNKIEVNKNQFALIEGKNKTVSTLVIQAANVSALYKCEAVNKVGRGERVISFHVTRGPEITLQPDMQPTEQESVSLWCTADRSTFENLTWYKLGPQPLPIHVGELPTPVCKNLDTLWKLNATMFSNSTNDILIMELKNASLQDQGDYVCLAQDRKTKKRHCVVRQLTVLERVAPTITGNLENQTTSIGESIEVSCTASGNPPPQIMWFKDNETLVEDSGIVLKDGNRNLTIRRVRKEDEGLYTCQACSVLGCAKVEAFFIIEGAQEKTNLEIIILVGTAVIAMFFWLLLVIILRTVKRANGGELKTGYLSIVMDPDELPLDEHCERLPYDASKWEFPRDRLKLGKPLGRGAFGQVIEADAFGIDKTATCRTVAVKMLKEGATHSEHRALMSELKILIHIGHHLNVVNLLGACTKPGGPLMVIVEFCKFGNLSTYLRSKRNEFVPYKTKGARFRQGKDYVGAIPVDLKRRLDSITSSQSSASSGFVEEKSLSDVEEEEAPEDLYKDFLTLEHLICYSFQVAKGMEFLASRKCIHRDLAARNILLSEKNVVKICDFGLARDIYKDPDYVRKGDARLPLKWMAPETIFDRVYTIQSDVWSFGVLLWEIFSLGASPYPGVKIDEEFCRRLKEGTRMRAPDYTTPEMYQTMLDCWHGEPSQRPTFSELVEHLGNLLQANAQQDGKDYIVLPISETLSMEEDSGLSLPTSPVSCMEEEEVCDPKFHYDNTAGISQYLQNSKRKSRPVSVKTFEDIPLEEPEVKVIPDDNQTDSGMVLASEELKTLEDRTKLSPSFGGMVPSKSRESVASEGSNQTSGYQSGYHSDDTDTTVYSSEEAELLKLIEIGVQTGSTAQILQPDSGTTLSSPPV

In the case of `Cn1cc(-c2cc(-c3ccc(N4CCC5(CC4)CN(C(=O)c4ccccc4)C5)nc3)c3c(C#N)cnn3c2)cn1` [Example 217, 4-(6-(2-benzoyl-2,7-diazaspiro[3.5]nonan-7-yl)pyridin-3-yl)-6-(1-methyl-1H-pyrazol-4-yl)pyrazolo[1,5-a]pyridine-3-carbonitrile], the IC50 amounted to 1670 nM. In the case of `Cn1cc(-c2cc(-c3ccc(N4CCC5(CC4)CN(C(=O)Cc4ccccc4)C5)nc3)c3c(C#N)cnn3c2)cn1` [Example 218, 6-(1-methyl-1H-pyrazol-4-yl)-4-(6-(2-(2-phenylacetyl)-2,7-diazaspiro[3.5]nonan-7-yl)pyridin-3-yl)pyrazolo[1,5-a]pyridine-3-carbonitrile] it was 4790 nM; in that of `CC(=O)N1CC2(CCN(c3ccc(-c4cc(-c5cnn(C)c5)cn5ncc(C#N)c45)cn3)CC2)C1` [Example 220, 4-(6-(2-acetyl-2,7-diazaspiro[3.5]nonan-7-yl)pyridin-3-yl)-6-(1-methyl-1H-pyrazol-4-yl)pyrazolo[1,5-a]pyridine-3-carbonitrile], 617 nM. In the case of `CC(C)C(=O)N1CC2(CCN(c3ccc(-c4cc(-c5cnn(C)c5)cn5ncc(C#N)c45)cn3)CC2)C1` [Example 221, 4-(6-(2-isobutyryl-2,7-diazaspiro[3.5]nonan-7-yl)pyridin-3-yl)-6-(1-methyl-1H-pyrazol-4-yl)pyrazolo[1,5-a]pyridine-3-carbonitrile] it was 1660 nM; in that of `CC(C)OC(=O)N1CC2(CCN(c3ccc(-c4cc(-c5cnn(C)c5)cn5ncc(C#N)c45)cn3)CC2)C1` [Example 222, isopropyl 7-(5-(3-cyano-6-(1-methyl-1H-pyrazol-4-yl)pyrazolo[1,5-a]pyridin-4-yl)pyridin-2-yl)-2,7-diazaspiro[3.5]nonane-2-carboxylate], 257 nM. In the case of `Cn1cc(-c2cc(-c3ccc(N4CC5(CCN(C(=O)OC(C)(C)C)CC5)C4)nc3)c3c(C#N)cnn3c2)cn1` [Example 223, tert-butyl 2-(5-(3-cyano-6-(1-methyl-1H-pyrazol-4-yl)pyrazolo[1,5-a]pyridin-4-yl)pyridin-2-yl)-2,7-diazaspiro[3.5]nonane-7-carboxylate] it was 1550 nM. On to `Cn1cc(-c2cc(-c3ccc(N4CCOCC4)nc3)c3c(C#N)cnn3c2)cn1` [Example 224, 6-(1-methyl-1H-pyrazol-4-yl)-4-(6-morpholinopyridin-3-yl)pyrazolo[1,5-a]pyridine-3-carbonitrile], for which the IC50 is 555 nM. In turn, `CC(C)NC(=O)[C@@H]1CN(c2ccc(-c3cc(-c4cnn(C)c4)cn4ncc(C#N)c34)cn2)CCO1` [Example 228, (S)-4-(5-(3-cyano-6-(1-methyl-1H-pyrazol-4-yl)pyrazolo[1,5-a]pyridin-4-yl)pyridin-2-yl)-N-isopropylmorpholine-2-carboxamide] had a half-inhibitory concentration (IC50) of 4530 nM. In the case of `Cn1cc(-c2cc(-c3ccc(N4CCC(C(=O)NC5CC(F)(F)C5)CC4)nc3)c3c(C#N)cnn3c2)cn1` [Example 238, 1-(5-(3-cyano-6-(1-methyl-1H-pyrazol-4-yl)pyrazolo[1,5-a]pyridin-4-yl)pyridin-2-yl)-N-(3,3-difluorocyclobutyl) piperidine-4-carboxamide] it was 420 nM.

Consider `CO[C@H]1C[C@H](NC(=O)C2CCN(c3ccc(-c4cc(-c5cnn(C)c5)cn5ncc(C#N)c45)cn3)CC2)C1` [Example 240, 1-(5-(3-cyano-6-(1-methyl-1H-pyrazol-4-yl)pyrazolo[1,5-a]pyridin-4-yl)pyridin-2-yl)-N-((1r,3r)-3-methoxycyclobutyl) piperidine-4-carboxamide], for which the IC50 was 897 nM.

In turn, `CO[C@H]1C[C@@H](NC(=O)C2CCN(c3ccc(-c4cc(-c5cnn(C)c5)cn5ncc(C#N)c45)cn3)CC2)C1` [Example 241, 1-(5-(3-cyano-6-(1-methyl-1H-pyrazol-4-yl)pyrazolo[1,5-a]pyridin-4-yl)pyridin-2-yl)-N-((1s,3s)-3-methoxycyclobutyl) piperidine-4-carboxamide] displayed an IC50 of 1840 nM. In the case of `Cn1cc(-c2cc(-c3ccc(N4CCC(C(=O)N5CCCC5)CC4)nc3)c3c(C#N)cnn3c2)cn1` [Example 248, 6-(1-methyl-1H-pyrazol-4-yl)-4-(6-(4-(pyrrolidine-1-carbonyl)piperidin-1-yl)pyridin-3-yl)pyrazolo[1,5-a]pyridine-3-carbonitrile] it was 1240 nM; in that of `Cn1cc(-c2cc(-c3ccc(N4CC[C@@H](C(=O)NCCC(F)(F)F)C4)nc3)c3c(C#N)cnn3c2)cn1` [Example 259, (R)-1-(5-(3-cyano-6-(1-methyl-1H-pyrazol-4-yl)pyrazolo[1,5-a]pyridin-4-yl)pyridin-2-yl)-N-(3,3,3-trifluoropropyl)pyrrolidine-3-carboxamide], 2770 nM; in that of `Cn1cc(-c2cc(-c3ccc(N4CC[C@@H](C(=O)N5CCCC5)C4)nc3)c3c(C#N)cnn3c2)cn1` [Example 260, (R)-6-(1-methyl-1H-pyrazol-4-yl)-4-(6-(3-(pyrrolidine-1-carbonyl)pyrrolidin-1-yl)pyridin-3-yl)pyrazolo[1,5-a]pyridine-3-carbonitrile], at least 5000 nM. In the case of `Cn1cc(-c2cc(-c3ccc(N4CC[C@H](C(=O)NCCC(F)(F)F)C4)nc3)c3c(C#N)cnn3c2)cn1` [Example 262, (S)-1-(5-(3-cyano-6-(1-methyl-1H-pyrazol-4-yl)pyrazolo[1,5-a]pyridin-4-yl)pyridin-2-yl)-N-(3,3,3-trifluoropropyl)pyrrolidine-3-carboxamide] it was 617 nM; in that of `N#Cc1cnn2cc(-c3cnn(C(F)F)c3)cc(-c3ccc(N4CCN(C(=O)[C@H](O)c5ccccc5)CC4)nc3)c12` [Example 268, (R)-6-(1-(difluoromethyl)-1H-pyrazol-4-yl)-4-(6-(4-(2-hydroxy-2-phenylacetyl)piperazin-1-yl)pyridin-3-yl)pyrazolo[1,5-a]pyridine-3-carbonitrile], 497 nM.

`CO[C@H]1CCN(C(=O)N2CCN(c3ccc(-c4cc(-c5cnn(C(F)F)c5)cn5ncc(C#N)c45)cn3)CC2)C1` [Example 269, (S)-6-(1-(difluoromethyl)-1H-pyrazol-4-yl)-4-(6-(4-(3-methoxypyrrolidine-1-carbonyl)piperazin-1-yl)pyridin-3-yl)pyrazolo[1,5-a]pyridine-3-carbonitrile]: the IC50 is 1700 nM. In the case of `Cn1ccc(-c2cc(-c3ccc(N4CCN(C(=O)[C@H](O)c5ccccc5)CC4)nc3)c3c(C#N)cnn3c2)n1` [Example 272, (R)-4-(6-(4-(2-hydroxy-2-phenylacetyl)piperazin-1-yl)pyridin-3-yl)-6-(1-methyl-1H-pyrazol-3-yl)pyrazolo[1,5-a]pyridine-3-carbonitrile] it was 575 nM; in that of `CC(C)CC(=O)N1CCN(c2ccc(-c3cc(-c4ccn(C)n4)cn4ncc(C#N)c34)cn2)CC1` [Example 273, 6-(1-methyl-1H-pyrazol-3-yl)-4-(6-(4-(3-methylbutanoyl)piperazin-1-yl)pyridin-3-yl)pyrazolo[1,5-a]pyridine-3-carbonitrile], 2140 nM; in that of `CO[C@H]1CCN(C(=O)N2CCN(c3ccc(-c4cc(-c5ccn(C)n5)cn5ncc(C#N)c45)cn3)CC2)C1` [Example 274, (S)-4-(6-(4-(3-methoxypyrrolidine-1-carbonyl)piperazin-1-yl)pyridin-3-yl)-6-(1-methyl-1H-pyrazol-3-yl)pyrazolo[1,5-a]pyridine-3-carbonitrile], at least 5000 nM. In the case of `Cc1cc(-c2cc(-c3cnn(C)c3)cn3ncc(C#N)c23)cnc1N1CCN(C(=O)[C@H](O)c2ccccc2)CC1` [Example 278, (R)-4-(6-(4-(2-hydroxy-2-phenylacetyl)piperazin-1-yl)-5-methylpyridin-3-yl)-6-(1-methyl-1H-pyrazol-4-yl)pyrazolo[1,5-a]pyridine-3-carbonitrile] it was 138 nM; in that of `Cn1cc(-c2cc(-c3cnc(N4CCN(C(=O)[C@H](O)c5ccccc5)CC4)nc3)c3c(C#N)cnn3c2)cn1` [Example 282, (R)-4-(2-(4-(2-hydroxy-2-phenylacetyl)piperazin-1-yl)pyrimidin-5-yl)-6-(1-methyl-1H-pyrazol-4-yl)pyrazolo[1,5-a]pyridine-3-carbonitrile], 662 nM; in that of `CO[C@@H](C(=O)N1CCN(c2ncc(-c3cc(-c4cnn(C)c4)cn4ncc(C#N)c34)cn2)CC1)c1ccccc1` [Example 284, (R)-4-(2-(4-(2-methoxy-2-phenylacetyl)piperazin-1-yl)pyrimidin-5-yl)-6-(1-methyl-1H-pyrazol-4-yl)pyrazolo[1,5-a]pyridine-3-carbonitrile], 663 nM. In the case of `CC(C)[C@@H](O)C(=O)N1CCN(c2ncc(-c3cc(-c4cnn(C)c4)cn4ncc(C#N)c34)cn2)CC1` [Example 285, (R)-4-(2-(4-(2-hydroxy-3-methylbutanoyl)piperazin-1-yl)pyrimidin-5-yl)-6-(1-methyl-1H-pyrazol-4-yl)pyrazolo[1,5-a]pyridine-3-carbonitrile] it was 1710 nM.

As for `CO[C@H]1CCN(C(=O)N2CCN(c3ncc(-c4cc(-c5cnn(C)c5)cn5ncc(C#N)c45)cn3)CC2)C1` [Example 286, (S)-4-(2-(4-(3-methoxypyrrolidine-1-carbonyl)piperazin-1-yl)pyrimidin-5-yl)-6-(1-methyl-1H-pyrazol-4-yl)pyrazolo[1,5-a]pyridine-3-carbonitrile], the IC50 is 4830 nM. In the case of `Cn1cc(-c2cc(-c3cnc(N4CCN(C(=O)[C@H](O)c5ccccc5)CC4)cn3)c3c(C#N)cnn3c2)cn1` [Example 288, (R)-4-(5-(4-(2-hydroxy-2-phenylacetyl)piperazin-1-yl)pyrazin-2-yl)-6-(1-methyl-1H-pyrazol-4-yl)pyrazolo[1,5-a]pyridine-3-carbonitrile] it was 1940 nM. In the case of `CO[C@H]1CCN(C(=O)N2CCN(c3cnc(-c4cc(-c5cnn(C)c5)cn5ncc(C#N)c45)cn3)CC2)C1` [Example 289, (S)-4-(5-(4-(3-methoxypyrrolidine-1-carbonyl)piperazin-1-yl)pyrazin-2-yl)-6-(1-methyl-1H-pyrazol-4-yl)pyrazolo[1,5-a]pyridine-3-carbonitrile] it was 229 nM.
